Experimental findings from the OPERA property sets (Mansouri et al. 2018) are described below.

Settings in one data set: not given
Regarding `CCCCCCCCCCCCCC(=O)CC`, the melting point (commonly the temperature, or range, at which the solid turns liquid) was 43 °C.
Compound `CC(C)Oc1ccc(C(=O)NS(=O)(=O)c2ccc(N)cc2)cc1` registered a melting point of 172 °C.
Consider `Oc1ccc(Cl)c(Cl)c1`, for which the boiling point (as a rule, the temperature at which the vapour pressure of the liquid equals the pressure above it) was determined as 253 °C; the log10 Koc (L/kg) came to 3.09; the melting point amounted to 68 °C; the ready biodegradability result is given as “not readily biodegradable”.
In the case of `CCCCCCCCCC(C)=O`, the boiling point is 232 °C, the log10 Henry constant (atm·m³/mol) is -4.2, the log10 vapour pressure (mmHg) is -1.38 and the melting point was 15 °C.
The compound `CC(C)(C)SSC(C)(C)C` returned a melting point of -5 °C.
For `CCCC[Si]1(C)O[Si](C)(CCCC)O[Si](C)(CCCC)O[Si](C)(CCCC)O1` (stereo not drawn), the boiling point came to 291 °C.
For the compound `CCCCCCCCCCCCCCCCCCOP(OCCCCCCCCCCCCCCCCCC)OCCCCCCCCCCCCCCCCCC`, the ready biodegradability entry is reported as “readily biodegradable”.
Turning to `CN(C)CCCN`, the boiling point came out at 133 °C, the log10 vapour pressure (mmHg) was found to be 1 and the melting point was -60 °C.
As to `COc1ccc(C(=NCc2ccccc2)c2ccc(OC)cc2)cc1`, the melting point came out at 90 °C.
For the compound `C=C1C(=O)OC2[C@H]1CC[C@H](C)[C@@H]1C=CC(=O)[C@@]21C` (stereo partly drawn), the melting point is 146 °C.
`COc1ccccc1OC(=O)Oc1ccccc1OC` yielded a melting point of 89 °C.
On to `Cc1cccc(Oc2ccccc2)c1`, for which the boiling point worked out at 272 °C and the ready biodegradability entry is “not readily biodegradable”.
Turning to `NC(=O)c1ccc(Br)cc1`, the melting point was determined as 192 °C.
The compound `ClC(Cl)=CBr` returned a boiling point of 108 °C and a melting point of -88.5 °C.
Turning to `CNC(C)CCC=C(C)C` (stereo not drawn), the boiling point was 177 °C.
For the compound `CC(=O)Oc1cc(C(C)C)c(OCCN(C)C)cc1C`, the melting point turned out to be 144 °C.
In turn, `O=[PH](O)c1ccccc1` displayed a melting point of 84 °C.
Turning to `O=Cc1c(O)ccc2ccccc12`, the melting point was 83 °C and the ready biodegradability result is “readily biodegradable”.
For the compound `FC(F)(F)C(Cl)CCl` (stereo not drawn), the boiling point is 76.9 °C.
Turning to `COCCl`, the boiling point is 59.5 °C, the log10 vapour pressure (mmHg) is 1.48, the melting point was -104 °C and the ready biodegradability entry is “readily biodegradable”.
`CCCCCCCCCCCCCCCCCCN=C=O`: the boiling point came to 300 °C, the melting point came to 20 °C and the ready biodegradability result is reported as “not readily biodegradable”.
Turning to `c1ccc2nccnc2c1`, the boiling point came out at 230 °C and the melting point was found to be 28 °C.
`Cc1cc(C)c([N+](=O)[O-])c(C)c1[N+](=O)[O-]` had a boiling point of 418 °C and a melting point of 85.3 °C.
In turn, `Cc1cc(C)c(C(=O)O)c(C)c1` returned a melting point of 154 °C.
For the compound `Clc1ccc(Cl)c(-c2c(Cl)ccc(Cl)c2Cl)c1`, the log10 Henry constant (atm·m³/mol) is -3.92, the log10 Koa is 8.79 and the log10 Koc (L/kg) came to 5.55.
In the case of `CC(=O)OC(C)CC(C)C` (stereo not drawn), the boiling point stood at 148 °C, the log10 vapour pressure (mmHg) came out at 0.602, the melting point was -64 °C and the ready biodegradability entry is “readily biodegradable”.
Compound `ClC1=C(Cl)C(Cl)(Cl)C(Cl)=C1Cl` returned a boiling point of 239 °C, a log10 Henry constant (atm·m³/mol) of -1.57, a log10 vapour pressure (mmHg) of -1.22 and a melting point of -9 °C. The ready biodegradability entry is on record as “not readily biodegradable”.
In the case of `Brc1ccc(Oc2ccc(Br)cc2Br)c(Br)c1`, the log10 Koa turned out to be 10.5; the log10 vapour pressure (mmHg) was -7.15; the logP (in general, the decadic logarithm of the partition coefficient of the neutral form, usually between octanol and water) was 6.81.
The compound `C=Cc1ccc(C)nc1` returned a boiling point of 181 °C and a log10 vapour pressure (mmHg) of 0.0719.
On to `CC1=C(/C=C/C(C)=C/C=C/C(C)=C/C=C/C=C(C)/C=C/C=C(C)/C=C/C2=C(C)CCCC2(C)C)C(C)(C)CCC1`, for which the melting point worked out at 183 °C.
Turning to `CC1=CCC(=O)O1`, the melting point turned out to be 18 °C.
For `CS`, the boiling point was 5.9 °C, the log10 vapour pressure (mmHg) came out at 3.18, the melting point was -123 °C and the ready biodegradability result is recorded as “readily biodegradable”.
`CCOC(=O)C(C(C)=O)C(C)=O` showed a boiling point of 210 °C.
For `C1CCCCCCCCCCC1`, the boiling point stood at 247 °C, the melting point came to 60.4 °C and the ready biodegradability result is given as “not readily biodegradable”.
In turn, `O=[N+]([O-])c1ccc(NS(=O)(=O)c2ccc(Cl)c(C(F)(F)F)c2)c(Cl)c1` yielded a melting point of 170 °C.
In turn, `CCCOCC` displayed a boiling point of 63.2 °C, a log10 vapour pressure (mmHg) of 2.26 and a melting point of -128 °C.
Compound `Cc1c(CN2CCOC(c3ccccc3)C2C)c(=O)n(-c2ccccc2)n1C` (stereo not drawn) came in with a melting point of 150 °C.
`CN1CCN(CCCN2c3ccccc3Sc3ccc(C(F)(F)F)cc32)CC1.Cl.Cl` returned a melting point of 240 °C.
In the case of `Cc1ccc([N+](=O)[O-])c(F)c1`, the melting point came to 53.2 °C.
`Clc1cc(Cl)c2cccc(Cl)c2c1` registered a log10 Koa of 7.32.
`Nc1cn[nH]c1` yielded a melting point of 81 °C.
For the compound `O=c1[nH]c2ccccc2c(-c2ccccc2)c1O`, the melting point was determined as 268 °C.
On the same count and under the same terms, for `Cc1ccccc1NC(=O)c1ccccc1` the value was 146 °C.
Compound `Cc1cccc(C)c1C` displayed a boiling point of 176 °C, a log10 Henry constant (atm·m³/mol) of -2.36, a log10 Koc (L/kg) of 2.8 and a log10 biodegradation half-life (days) of 0.602. Further, the log10 vapour pressure (mmHg) was found to be 0.228, the melting point was -25.4 °C and the ready biodegradability entry was “not readily biodegradable”.

The data set is the same for the next values; noted with them: fish.
`Clc1ccc(-c2c(Cl)cccc2Cl)cc1`: the log10 biotransformation half-life (days) was found to be 2.44.
Turning to `O=[N+]([O-])c1cc(Cl)c(Cl)c(Cl)c1Cl`, the log10 BCF came to 1.9 and the log10 biotransformation half-life (days) is -0.69.
On to `CC(C)C(O)C(C)(C)CO` (stereo not drawn), for which the log10 BCF came to 0 and the log10 biotransformation half-life (days) is -1.34.
As for `O=[N+]([O-])c1ccc(O)c([N+](=O)[O-])c1`, the log10 BCF amounted to 0.57.
`Cc1c(Cl)cccc1[N+](=O)[O-]` came in with a log10 BCF of 1.99.
As to `Oc1ccc(Cl)c(Cl)c1`, the log10 BCF amounted to 1.69 and the log10 biotransformation half-life (days) is -0.92.
In turn, `O=[PH](O)c1ccccc1` displayed a log10 BCF of 0.78.
With `Brc1ccc(Oc2ccc(Br)cc2Br)c(Br)c1`, the log10 BCF amounted to 5.84 and the log10 biotransformation half-life (days) stood at 1.6.
With `C1CCCCCCCCCCC1`, the log10 BCF came out at 3.91 and the log10 biotransformation half-life (days) is 1.33.
As for `Cc1cccc(C)c1C`, the log10 BCF came out at 2.29 and the log10 biotransformation half-life (days) is -0.22.
